Experimental data: patent US12521415B2, “Accelerating repair of mucosal injury using gold(III) compounds” (University of Kentucky Research Foundation, priority 2020, dated 2026)
Entries after “also recorded” stand apart in the source; their conditions may differ.

What was measured:
[1] = test system: human colonoids; assay: AmplexRed H2O2 production in human colonoid monolayer cultures; assay type: cell-based
Protocol: (§1) FIG. 11A includes representative images showing AuPhos-induced (200 nM) mtROS (superoxide) production using MitoSOX Red assay.
Murine IEC will be isolated as above. Human biopsies will be incubated for 15 min at RT in CMF-HBSS/10 mM DTT with following incubation at 4° C. CMF-HBSS/8 mM EDTA for 75 min. Epithelial cells will be dislodged by vigorous shaking. Large pieces of tissue will be discarded, epithelial cells harvested by centrifugation at 40 g/5 min and imbedded in Matrigel. Both human and mouse colonoids will be grown in WRN medium (conditional medium from L-WRN cells (ATCC CRL-3276)) supplemented with 20% FBS, 500 nM A 83-01, 10 μM SB 202190, 10 μM Y27632, 2.5 μM CHIR99021, 100 μg/ml piromicin and 2.5 μg/ml amphotericin. Colonoids will be passaged every 5-7 days. NCM460 cells derived from normal human colon mucosa were purchased from INCELL Corporation, and will be cultured in M3:10 medium with 30% conditioned medium from previous culture under standard incubation conditions.
Given the in vivo data in FIG. 10, it was determined if AuPhos increases ROS levels within mitochondria (mtROS). To examine this possibility, colonic NCM460 cells were cultured, treated with a positive control (Rotenone), AuPhos (200 nM) or AuPhos with PEG-SOD (negative control) and analyzed with MitoSOX Red (an indicator of mitochondrial superoxide). […]

[2] = test system: normal colonocytes (NCM460); assay: Mitochondrial uptake of AuPhos by gold content (graphite furnace atomic absorption spectroscopy) in NCM460; assay type: cell-based, human; settings: normal colon epithelial cells (NCM460)
Excerpt: FIGS. 8A-8J present properties of AuPhos. FIG. 8A includes a chemical structure of AuPhos. FIG. 8B includes extrapolated AuPhos-induced OCR (complex I) in liver mitochondria. […] FIG. 8E provides weight change in AuPhos-treated mice over time. FIG. 8F presents stability of AuPhos in PBS and DMEM. FIG. 8G presents stability of AuPhos in PBS and DMEM. FIG. 8H includes an AuPhos-induced Heat map of DEG (left Panel), obtained using log 2(Fold Change) and p-Value <0.00001 thresholds in MDA-MB-231(107) cells (n=2), and the top six hits of KEGG analysis (right panel). FIG. 8I presents biodistribution and pharmacokinetics of AuPhos in different tissues; Colon, Small bowel, Lung, Kidney, Spleen, Liver, Heart and Blood after single dose (oral, 25 mg/kg) administration of AuPhos at 6 h, 12 h and 24 h. FIG. 8J presents biodistribution and pharmacokinetics of AuPhos in different tissues stool after single dose (oral, 25 mg/kg) administration of AuPhos at 6 h, 12 h and 24 h.
FIGS. 16A-16E illustrate the pharmacokinetics and effects of AuPhos on mitochondrial bioenergetics. FIG. 16A. Biodistribution and pharmacokinetics of AuPhos in different tissues; Colon, Small bowel, Spleen, Liver after a single intragastric (i.g.) gavage (25 mg/kg) with measurements of AuPhos tissue levels (graphite furnace atomic absorption spectroscopy) at times indicated. FIG. 16B. […]

[3] = test system: colonic NCM460 cells; assay: MitoSOX Red assay of mtROS (superoxide) production; assay type: cell-based, human
Protocol: as §1
Given the in vivo data in FIG. 10, it was determined if AuPhos increases ROS levels within mitochondria (mtROS). To examine this possibility, colonic NCM460 cells were cultured, treated with a positive control (Rotenone), AuPhos (200 nM) or AuPhos with PEG-SOD (negative control) and analyzed with MitoSOX Red (an indicator of mitochondrial superoxide). […] Studies in FIGS. 11C and 11D used human colonoids isolated from normal patients to examine effects of AuPhos on hydrogen peroxide (H2O2) production from normal and low-dose TNF-stimulated colonoids.

`[Cl][Au]1([c]2ccccc2Cc2ccccn2)[P](c2ccccc2)(c2ccccc2)c2ccccc2[P]1(c1ccccc1)c1ccccc1` [AuPhos] was tested, and the “hydrogen peroxide (H2O2) production” value ([1]; AuPhos 200 nM, normal and low-dose TNF-stimulated human colonoids, AmplexRed) was “increased in normal and TNF-treated cells; also recorded: Increases H2O2 production”, the “AuPhos-induced ROS (H2O2) with PEG catalase” value ([1]; human colonoids) was “specifically digested with PEG catalase” and the “mitochondrial localization (gold content)” value [2] was “localizes in the mitochondria”. For the same compound, the “AuPhos-induced mtROS production with PEG-SOD” value ([3]; AuPhos 200 nM with PEG-SOD (negative control), NCM460) was “specifically inhibited with PEG-SOD” and the “rise in mtROS production” value ([3]; AuPhos 200 nM, NCM460 cells, MitoSOX Red) was 45%.
